Source: ChEMBL document CHEMBL3351996, “Carbonic anhydrase inhibitory activity of sulfonamides and carboxylic acids incorporating cyclic imide scaffolds” (Bioorg Med Chem Lett, 2014)

Key:
Carbonic anhydrase 9 = Carbonic anhydrase 9 (Homo sapiens, UniProt Q16790)
Description: Inhibition of human carbonic anhydrase 9 by stopped-flow CO2 hydrase assay

Carbonic anhydrase 2 = Carbonic anhydrase 2 (Homo sapiens, UniProt P00918); assay: Inhibition of human carbonic anhydrase 2 by stopped-flow CO2 hydrase assay
Carbonic anhydrase 1 = Carbonic anhydrase 1 (Homo sapiens, UniProt P00915); assay: Inhibition of human carbonic anhydrase 1 by stopped-flow CO2 hydrase assay
Chain of Carbonic anhydrase 1 (P00915 whole entry): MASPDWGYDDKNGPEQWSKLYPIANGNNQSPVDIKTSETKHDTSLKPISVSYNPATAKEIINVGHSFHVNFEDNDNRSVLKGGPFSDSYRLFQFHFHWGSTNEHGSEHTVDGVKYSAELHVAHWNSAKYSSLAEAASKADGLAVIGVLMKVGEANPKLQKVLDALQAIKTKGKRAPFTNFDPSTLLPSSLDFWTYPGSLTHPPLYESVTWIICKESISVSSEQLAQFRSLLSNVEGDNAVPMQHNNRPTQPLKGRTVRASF

Carbonic anhydrase 12 = Carbonic anhydrase 12 (Homo sapiens, UniProt O43570)
Chain of Carbonic anhydrase 12 (O43570 whole entry): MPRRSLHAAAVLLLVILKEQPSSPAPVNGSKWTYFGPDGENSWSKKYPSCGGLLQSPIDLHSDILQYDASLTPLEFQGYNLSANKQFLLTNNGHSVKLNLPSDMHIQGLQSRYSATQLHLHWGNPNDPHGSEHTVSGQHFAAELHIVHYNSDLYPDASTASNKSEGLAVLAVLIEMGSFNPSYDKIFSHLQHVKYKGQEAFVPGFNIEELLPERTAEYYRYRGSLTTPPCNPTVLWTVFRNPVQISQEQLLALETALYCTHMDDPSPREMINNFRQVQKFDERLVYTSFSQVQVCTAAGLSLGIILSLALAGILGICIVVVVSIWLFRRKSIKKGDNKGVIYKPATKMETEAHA
Description: Inhibition of human carbonic anhydrase 12 by stopped-flow CO2 hydrase assay

NS(=O)(=O)c1ccc(N2C(=O)CCC2=O)cc1 showed a Ki (Carbonic anhydrase 9) of 10.8 nM.
Compound NS(=O)(=O)c1ccc(N2C(=O)c3nccnc3C2=O)cc1 has a Ki (Carbonic anhydrase 9) of 2.9 nM.
Compound NS(=O)(=O)c1ccc(CN2C(=O)c3nccnc3C2=O)cc1 has a Ki (Carbonic anhydrase 9) of 5.9 nM.
With O=C(O)c1ccc(N2C(=O)c3ccc([N+](=O)[O-])cc3C2=O)cc1 the Ki (Carbonic anhydrase 2) was > 1000 nM and the Ki (Carbonic anhydrase 1) was > 1000 nM.
In the case of NS(=O)(=O)c1ccc(N2C(=O)[C@H]3CC=CC[C@H]3C2=O)cc1, the Ki (Carbonic anhydrase 12) is reported as 0.57 nM, the Ki (Carbonic anhydrase 2) is reported as 4.8 nM and the Ki (Carbonic anhydrase 9) is reported as 4.4 nM. It also gave a Ki (Carbonic anhydrase 1) of 31.2 nM.
In the case of O=C(O)c1ccc(N2C(=O)CCC2=O)cc1, the Ki (Carbonic anhydrase 2) is reported as > 1000 nM and the Ki (Carbonic anhydrase 9) is reported as 506 nM.
With O=C(O)c1ccc(N2C(=O)c3cc(Cl)c(Cl)cc3C2=O)cc1 the Ki (Carbonic anhydrase 2) was > 1000 nM and the Ki (Carbonic anhydrase 9) was 41.6 nM.
Work on Cc1ccc2c(c1)C(=O)N(c1ccc(S(N)(=O)=O)cc1)C2=O yielded a Ki (Carbonic anhydrase 9) of 3.3 nM.
For O=C(O)c1ccc(N2C(=O)c3nccnc3C2=O)cc1, the Ki (Carbonic anhydrase 2) was > 1000 nM, the Ki (Carbonic anhydrase 9) was 22.1 nM and the Ki (Carbonic anhydrase 1) was > 1000 nM.
Work on NS(=O)(=O)c1ccc(CN2C(=O)c3c(Cl)c(Cl)c(Cl)c(Cl)c3C2=O)cc1 yielded a Ki (Carbonic anhydrase 9) of 3.1 nM.
Compound NS(=O)(=O)c1ccc(CN2C(=O)c3cccc4cccc(c34)C2=O)cc1 has a Ki (Carbonic anhydrase 9) of 4.6 nM.
Work on NS(=O)(=O)c1ccc(CN2C(=O)c3ccccc3C2=O)cc1 yielded a Ki (Carbonic anhydrase 9) of 4.1 nM.
Work on NS(=O)(=O)c1ccc(CN2C(=O)CCC2=O)cc1 yielded a Ki (Carbonic anhydrase 9) of 29.3 nM.
NS(=O)(=O)c1ccc(N2C(=O)c3ccccc3C2=O)cc1 was tested, and the Ki (Carbonic anhydrase 9) was 3.8 nM.
CC(C)(C)c1ccc2c(c1)C(=O)N(c1ccc(S(N)(=O)=O)cc1)C2=O gave a Ki (Carbonic anhydrase 9) of 2.4 nM.
With O=C(O)c1ccc(N2C(=O)c3cccc4cccc(c34)C2=O)cc1 the Ki (Carbonic anhydrase 12) was 1.2 nM, the Ki (Carbonic anhydrase 2) was > 1000 nM and the Ki (Carbonic anhydrase 9) was 5.9 nM. The Ki (Carbonic anhydrase 1) was > 1000 nM.
O=C(O)c1ccc(N2C(=O)c3c(Cl)c(Cl)c(Cl)c(Cl)c3C2=O)cc1 was tested, and the Ki (Carbonic anhydrase 2) was > 1000 nM and the Ki (Carbonic anhydrase 9) was 4.4 nM.
With Cc1ccc2c(c1)C(=O)N(c1ccc(C(=O)O)cc1)C2=O the Ki (Carbonic anhydrase 2) was > 1000 nM and the Ki (Carbonic anhydrase 9) was 350 nM.
NS(=O)(=O)c1ccc(CN2C(=O)[C@H]3CC=CC[C@H]3C2=O)cc1 was tested, and the Ki (Carbonic anhydrase 9) was 2.6 nM.
Work on NS(=O)(=O)c1ccc(N2C(=O)c3cccc4cccc(c34)C2=O)cc1 yielded a Ki (Carbonic anhydrase 9) of 4.9 nM.
Cc1ccc2c(c1)C(=O)N(Cc1ccc(S(N)(=O)=O)cc1)C2=O was tested, and the Ki (Carbonic anhydrase 12) was 0.85 nM, the Ki (Carbonic anhydrase 2) was 26.2 nM and the Ki (Carbonic anhydrase 9) was 5.9 nM. It also gave a Ki (Carbonic anhydrase 1) of 21.8 nM.
For O=C(O)c1ccc(N2C(=O)c3ccccc3C2=O)cc1, the Ki (Carbonic anhydrase 12) was 18.7 nM, the Ki (Carbonic anhydrase 2) was 166 nM and the Ki (Carbonic anhydrase 9) was 4.9 nM. It also gave a Ki (Carbonic anhydrase 1) of 30.2 nM.
CC(C)(C)c1ccc2c(c1)C(=O)N(c1ccc(C(=O)O)cc1)C2=O was tested, and the Ki (Carbonic anhydrase 2) was > 1000 nM and the Ki (Carbonic anhydrase 9) was 428 nM.
